≈ marks a conversion by molar mass, not a printed value. One block for each compound: values may come before it.
Assays:
[1] = Hepatic clearance in Sprague-Dawley rat at 6 mg/kg, po; assay type: ADME, organism-based; settings: in vivo
[2] = AUC (0 to infinity) in Sprague-Dawley rat at 6 mg/kg, po; assay type: ADME, organism-based; design: time infinity, dose 6 mg/kg, route po; settings: in vivo
[3] = Volume of distribution in steady state in Sprague-Dawley rat at 6 mg/kg, po; assay type: ADME, organism-based; settings: in vivo
[4] = Cmax in Sprague-Dawley rat at 6 mg/kg, po; assay type: ADME, organism-based; design: dose 6 mg/kg, route po; settings: in vivo
[5] = Half life in Sprague-Dawley rat at 6 mg/kg, po; assay type: ADME, organism-based; settings: in vivo
[6] = Clearance in human liver microsomes incubated up to 80 mins by LC-MS/MS analysis; assay type: ADME, Microsome; settings: 1.333 h
[7] = Half life in C57BL/6 mouse at 6 mg/kg, po; assay type: ADME, organism-based; settings: in vivo
[8] = Clearance in rat liver microsomes incubated up to 80 mins by LC-MS/MS analysis; assay type: ADME, Microsome; settings: 1.333 h
[9] = Hepatic clearance in Beagle dog at 0.3 mg/kg, po; assay type: ADME, organism-based, Canis lupus familiaris; settings: in vivo
[10] = Clearance in Beagle dog at 6 mg/kg, po; assay type: ADME, organism-based, Canis lupus familiaris; settings: in vivo
[11] = Octanol/water partition coefficient, log P of the compound; assay type: physicochemical
[12] = Oral bioavailability in Beagle dog at 0.3 mg/kg; assay type: ADME, organism-based, Canis lupus familiaris; settings: in vivo
[13] = Unbound drug concentration in Sprague-Dawley rat brain at 3 umol/kg, po measured after 4 hrs by LC-MS/MS analysis; assay type: ADME, organism-based; settings: in vivo, dose 3 µmol/kg
[14] = Oral bioavailability in Sprague-Dawley rat at 6 mg/kg; assay type: ADME, organism-based; settings: in vivo
[15] = Unbound drug concentration in Sprague-Dawley rat brain at 30 umol/kg, po measured after 4 hrs by LC-MS/MS analysis; assay type: ADME, organism-based; settings: in vivo, dose 30 µmol/kg
[16] = Volume of distribution in steady state in Beagle dog at 0.3 mg/kg, po; assay type: ADME, organism-based, Canis lupus familiaris; settings: in vivo
[17] = Drug concentration in Sprague-Dawley rat blood at 30 umol/kg, po measured after 4 hrs by LC-MS/MS analysis; assay type: ADME, organism-based; settings: dose 30 µmol/kg, read-out: Drug uptake
[18] = Half life in Beagle dog at 0.3 mg/kg, po; assay type: ADME, organism-based, Canis lupus familiaris; settings: in vivo
[19] = Drug concentration in Sprague-Dawley rat blood at 3 umol/kg, po measured after 4 hrs by LC-MS/MS analysis; assay type: ADME, organism-based; settings: dose 3 µmol/kg, read-out: Drug uptake
[20] = Drug concentration in Sprague-Dawley rat blood at 100 umol/kg, po measured after 4 hrs by LC-MS/MS analysis; assay type: ADME, organism-based; settings: dose 100 µmol/kg, read-out: Drug uptake
[21] = Volume of distribution in steady state in C57BL/6 mouse at 6 mg/kg, po; assay type: ADME, organism-based; settings: in vivo
[22] = Oral bioavailability in C57BL/6 mouse at 6 mg/kg; assay type: ADME, organism-based; settings: in vivo
[23] = Unbound drug concentration in Sprague-Dawley rat brain at 10 umol/kg, po measured after 4 hrs by LC-MS/MS analysis; assay type: ADME, organism-based; settings: in vivo, dose 10 µmol/kg
[24] = Solubility of the compound at pH 6.8; assay type: physicochemical; settings: buffer
[25] = Drug concentration in Sprague-Dawley rat brain at 100 umol/kg, po measured after 4 hrs by LC-MS/MS analysis; assay type: ADME, organism-based; settings: dose 100 µmol/kg, read-out: Drug uptake
[26] = Drug concentration in Sprague-Dawley rat brain at 3 umol/kg, po measured after 4 hrs by LC-MS/MS analysis; assay type: ADME, organism-based; settings: dose 3 µmol/kg, read-out: Drug uptake
[27] = Unbound drug concentration in Sprague-Dawley rat brain at 100 umol/kg, po measured after 4 hrs by LC-MS/MS analysis; assay type: ADME, organism-based; settings: in vivo, dose 100 µmol/kg
[28] = Thermodynamic solubility of the compound at pH 6.8; assay type: physicochemical; settings: buffer, read-out: Therm_solubility
[29] = Clearance in mouse liver microsomes incubated up to 80 mins by LC-MS/MS analysis; assay type: ADME, Microsome; settings: 1.333 h
[30] = Drug concentration in Sprague-Dawley rat brain at 30 umol/kg, po measured after 4 hrs by LC-MS/MS analysis; assay type: ADME, organism-based; settings: dose 30 µmol/kg, read-out: Drug uptake
[31] = Cmax in C57BL/6 mouse at 6 mg/kg, po; assay type: ADME, organism-based; design: dose 6 mg/kg, route po; settings: in vivo
[32] = Thermodynamic solubility of the compound at pH 1; assay type: physicochemical; settings: buffer, read-out: Therm_solubility
[33] = Kinetic solubility of the compound at pH 7.4; assay type: physicochemical; settings: buffer, read-out: Kinetic_solubility
[34] = Cmax in Beagle dog at 0.3 mg/kg, po; assay type: ADME, organism-based, Canis lupus familiaris; design: dose 0.3 mg/kg, route po; settings: in vivo
[35] = Drug concentration in Sprague-Dawley rat brain at 10 umol/kg, po measured after 4 hrs by LC-MS/MS analysis; assay type: ADME, organism-based; settings: dose 10 µmol/kg, read-out: Drug uptake
[36] = Drug concentration in Sprague-Dawley rat blood at 10 umol/kg, po measured after 4 hrs by LC-MS/MS analysis; assay type: ADME, organism-based; settings: dose 10 µmol/kg, read-out: Drug uptake
[37] = AUC (0 to infinity) in C57BL/6 mouse at 6 mg/kg, po; assay type: ADME, organism-based; design: time infinity, dose 6 mg/kg, route po; settings: in vivo
[38] = AUC (0 to infinity) in Beagle dog at 0.3 mg/kg, po; assay type: ADME, organism-based, Canis lupus familiaris; design: time infinity, dose 0.3 mg/kg, route po; settings: in vivo

CLH [1]: 17 mL/min/kg
AUC [2]: 0.973 µM·h
Vdss [3]: 9 L/kg
Cmax [4]: 128 nM
half-life [5]: 4.9 h
Compound: Cc1cc(C#N)cnc1C(=O)Nc1ccc(F)c([C@]2(C)CO[C@@](C)(C(F)(F)F)C(N)=N2)c1

CLH [1]: 37 mL/min/kg
CLH [6]: 26 µL/min/mg
half-life [7]: 9.5 h
CLH [8]: 37 µL/min/mg
CLH [9]: 3.3 mL/min/kg
CL/F [10]: 2 mL/min/kg
logP [11]: 4.3
bioavailability [12]: 57%
Drug uptake(free) [13]: 0.002 µM
bioavailability [14]: 60%
Drug uptake(free) [15]: 0.12 µM
Vdss [16]: 3.9 L/kg
concentration at 4 h [17]: 1710 nM
half-life [18]: 23.4 h
concentration at 4 h [19]: 160 nM
concentration at 4 h [20]: 3430 nM
Vdss [21]: 6.9 L/kg
bioavailability [22]: 48%
AUC [2]: 2.045 µM·h
Drug uptake(free) [23]: 0.008 µM
solubility [24]: 13 µg/mL (≈ 25.3 µM)
concentration at 4 h [25]: 3600 nM
Vdss [3]: 6.9 L/kg
concentration at 4 h [26]: 180 nM
Cmax [4]: 146 nM
Drug uptake(free) [27]: 0.03 µM
solubility thermodynamic [28]: 23 µg/mL (≈ 44.8 µM)
CLH [29]: 32 µL/min/mg
concentration at 4 h [30]: 3280 nM
half-life [5]: 13.3 h
Cmax [31]: 82 nM
solubility thermodynamic [32]: > 1500 µg/mL
solubility kinetic [33]: 15 µg/mL (≈ 29.2 µM)
Cmax [34]: 257 nM
concentration at 4 h [35]: 850 nM
concentration at 4 h [36]: 440 nM
AUC [37]: 1.16 µM·h
AUC(0-inf) [38]: 7.75 µM·h
Compound: C[C@@]1(c2nc(NC(=O)c3ncc(C(F)(F)F)cc3Cl)ccc2F)CO[C@@](C)(C(F)(F)F)C(N)=N1

CLH [8]: 204 µL/min/mg
CLH [29]: 866 µL/min/mg
Compound: COCCOc1cnc(C(=O)Nc2ccc(F)c([C@]3(C)CO[C@@](C)(C(F)(F)F)C(N)=N3)n2)c(N)n1

— ChEMBL document CHEMBL5053529 (J Med Chem, 2021)
